Experimental data reported in ChEMBL document CHEMBL3526012, “Metabolism of (2S)-pterosin A: identification of the phase I and phase II metabolites in rat urine” (Drug Metab Dispos, 2012).
≈ marks a conversion by molar mass, not a printed value.

Assays:
[1] = Drug recovery in Wistar rat urine treated with (2S)-Pterosin at 100 mg/kg, po administered via gavage measured up to 24 hrs by reverse-phase HPLC analysis; format: ADME, organism-based; set-up: dose 100 mg/kg, route oral; conditions: in vivo
[2] = tested on: HeLa; assay: Cytotoxicity against human HeLa cells; format: cell-based
[3] = Drug recovery in Wistar rat urine assessed as retention time treated with (2S)-Pterosin at 100 mg/kg, po administered via gavage measured up to 24 hrs by HRESIMS analysis; format: ADME, organism-based; set-up: dose 100 mg/kg, route oral; conditions: in vivo
[4] = Drug recovery in Wistar rat urine assessed as retention time at 100 mg/kg, po administered via gavage measured up to 24 hrs by HRESIMS analysis; format: ADME, organism-based; set-up: dose 100 mg/kg, route oral; conditions: in vivo
[5] = Drug recovery in Wistar rat urine at 100 mg/kg, po administered via gavage measured up to 24 hrs by HRESIMS analysis; format: ADME, organism-based; set-up: dose 100 mg/kg, route oral; conditions: read-out: Drug recovery
[6] = Drug recovery in Wistar rat urine at 100 mg/kg, po administered via gavage measured up to 24 hrs by reverse-phase HPLC analysis; format: ADME, organism-based; set-up: dose 100 mg/kg, route oral; conditions: in vivo
[7] = Cytotoxicity against human HL60 cells; format: cell-based; conditions: HL-60

Cc1cc2c(c(C)c1CC(=O)O)C(=O)C(C)C2 (racemic)
Drug recovery [1]: metabolite_detected
IC50 [2]: 30 µg/mL (≈ 129 µM)
Retention_time [3]: 48.39 min

Cc1cc2c(c(C)c1CC(=O)O)C(=O)[C@](C)(CO)[C@@H]2O
Drug recovery [1]: metabolite_detected
Retention_time [3]: 26.11 min

Cc1cc2c(c(C)c1CCO[C@@H]1O[C@H](C(=O)O)[C@@H](O)[C@H](O)[C@H]1O)C(=O)[C@](C)(CO)C2
Drug recovery [1]: metabolite_detected
Retention_time [3]: 29.61 min

Cc1cc2c(c(C)c1CCO[C@@H]1O[C@H](C(=O)O)[C@@H](O)[C@H](O)[C@H]1O)C(=O)C(C)C2 (stereo partly drawn)
Drug recovery [1]: metabolite_detected
Retention_time [3]: 44.2 min

Cc1c2c(cc3c1C(=O)[C@](C)(CO)C3)COC(=O)C2
Drug recovery [1]: metabolite_detected
Retention_time [3]: 23.37 min

Cc1cc2c(c(C)c1CCO)C(=O)[C@](C)(CO[C@@H]1O[C@H](C(=O)O)[C@@H](O)[C@H](O)[C@H]1O)C2
Drug recovery [1]: metabolite_detected
Retention_time [3]: 32.08 min

Cc1cc2c(c(C)c1CCO)C(=O)[C@](C)(CO)C2
Retention_time [4]: 36.51 min
dose excreted at 24 h [5]: 2.64%
Drug recovery [6]: Active

Cc1cc2c(c(C)c1CCO)C(=O)[C@@H](C)[C@@H]2O
Drug recovery [1]: metabolite_detected
Retention_time [3]: 27.6 min

Cc1cc2c(c(C)c1CCO)C(=O)[C@](C)(CO)[C@H]2O
Drug recovery [1]: metabolite_detected
Retention_time [3]: 14.12 min

Cc1c(CCO)c(CO)cc2c1C(=O)[C@](C)(CO)C2
Drug recovery [1]: metabolite_detected
Retention_time [3]: 20.2 min

COC(=O)Cc1c(C)cc2c(c1C)C(=O)[C@](C)(CO)C2
Drug recovery [1]: metabolite_detected
Retention_time [3]: 45.33 min

Cc1cc2c(c(C)c1CCO)C(=O)[C@H](C)[C@@H]2O
Drug recovery [1]: metabolite_detected
Retention_time [3]: 25.27 min

Cc1c(CCO)c(CO)cc2c1C(=O)C(C)C2 (racemic)
Drug recovery [1]: metabolite_detected
Retention_time [3]: 29.61 min

Cc1cc2c(c(C)c1CCO)C(=O)C(C)C2 (racemic)
IC50 [7]: 8.7 µg/mL (≈ 39.9 µM)
Drug recovery [1]: metabolite_detected
Retention_time [3]: 49.54 min

Cc1cc2c(c(C)c1C)C(=O)[C@](C)(CO)[C@@H]2O
Drug recovery [1]: metabolite_detected
Retention_time [3]: 46.2 min

Cc1cc2c(c(C)c1C(O)CO)C(=O)C(C)C2 (racemic)
Drug recovery [1]: metabolite_detected
Retention_time [3]: 35.09 min

Cc1cc2c(c(C)c1CCO)C(=O)[C@](C)(CO)[C@@H]2O
Drug recovery [1]: metabolite_detected
Retention_time [3]: 20.74 min

Cc1c2c(cc3c1C(=O)[C@](C)(CO)C3)C(=O)OCC2
Drug recovery [1]: metabolite_detected
Retention_time [3]: 29.61 min

Cc1cc2c(c(C)c1CC(=O)O[C@@H]1O[C@H](C(=O)O)[C@@H](O)[C@H](O)[C@H]1O)C(=O)[C@](C)(CO)C2
Drug recovery [1]: metabolite_detected
Retention_time [3]: 24.6 min

Cc1cc2c(c(C)c1CC(=O)O)C(=O)[C@](C)(CO)C2
Drug recovery [1]: metabolite_detected
Retention_time [3]: 37.27 min
